Values joined by “and” are separate entries in the source; they are usually repeats but may differ in a detail not shown here. Identical values can stand only once.
Test system: 653999-131-R-J2-PDC complex spheroid viability
Test: Anticancer human tumor 653999-131-R-J2-PDC patient-derived lung adenocarcinoma cell line growth inhibition
Conditions: for viability, T/C: stronger effect = lower value
In short: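 Drug combinations with the LSD1 inhibitor iadademstat tested on tumor cells co-cultured as spheroids with endothelial cells and mesenchymal stem cells. Concentrations descended in half-log increments from clinical Cmax or 10 microM.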

[1] = curve of first compound, second compound 0.1 µM
[2] = curve of first compound, second compound 0.316 µM
[3] = curve of first compound, second compound 1 µM
[4] = curve of first compound, second compound 3.16 µM
[5] = curve of first compound, second compound 10 µM
[6] = second compound 0.1 µM, first compound 0.00949 µM
[7] = second compound 0.1 µM, first compound 0.03 µM
[8] = second compound 0.1 µM, first compound 0.0949 µM
[9] = second compound 0.1 µM, first compound 0.3 µM
[10] = second compound 0.316 µM, first compound 0.00949 µM
[11] = second compound 0.316 µM, first compound 0.03 µM
[12] = second compound 0.316 µM, first compound 0.0949 µM
[13] = second compound 0.316 µM, first compound 0.3 µM
[14] = second compound 1 µM, first compound 0.00949 µM
[15] = second compound 1 µM, first compound 0.03 µM
[16] = second compound 1 µM, first compound 0.0949 µM
[17] = second compound 1 µM, first compound 0.3 µM
[18] = second compound 3.16 µM, first compound 0.00949 µM
[19] = second compound 3.16 µM, first compound 0.03 µM
[20] = second compound 3.16 µM, first compound 0.0949 µM
[21] = second compound 3.16 µM, first compound 0.3 µM
[22] = second compound 10 µM, first compound 0.00949 µM
[23] = second compound 10 µM, first compound 0.03 µM
[24] = second compound 10 µM, first compound 0.0949 µM
[25] = second compound 10 µM, first compound 0.3 µM
[26] = second compound 0.1 µM, first compound 0.00316 µM
[27] = second compound 0.1 µM, first compound 0.01 µM
[28] = second compound 0.1 µM, first compound 0.0316 µM
[29] = second compound 0.1 µM, first compound 0.1 µM
[30] = second compound 0.1 µM, first compound 0.316 µM
[31] = second compound 0.1 µM, first compound 1 µM
[32] = second compound 0.316 µM, first compound 0.00316 µM
[33] = second compound 0.316 µM, first compound 0.01 µM
[34] = second compound 0.316 µM, first compound 0.0316 µM
[35] = second compound 0.316 µM, first compound 0.1 µM
[36] = second compound 0.316 µM, first compound 0.316 µM
[37] = second compound 0.316 µM, first compound 1 µM
[38] = second compound 1 µM, first compound 0.00316 µM
[39] = second compound 1 µM, first compound 0.01 µM
[40] = second compound 1 µM, first compound 0.0316 µM
[41] = second compound 1 µM, first compound 0.1 µM
[42] = second compound 1 µM, first compound 0.316 µM
[43] = second compound 1 µM, first compound 1 µM
[44] = second compound 3.16 µM, first compound 0.00316 µM
[45] = second compound 3.16 µM, first compound 0.01 µM
[46] = second compound 3.16 µM, first compound 0.0316 µM
[47] = second compound 3.16 µM, first compound 0.1 µM
[48] = second compound 3.16 µM, first compound 0.316 µM
[49] = second compound 3.16 µM, first compound 1 µM
[50] = second compound 10 µM, first compound 0.00316 µM
[51] = second compound 10 µM, first compound 0.01 µM
[52] = second compound 10 µM, first compound 0.0316 µM
[53] = second compound 10 µM, first compound 0.1 µM
[54] = second compound 10 µM, first compound 0.316 µM
[55] = second compound 10 µM, first compound 1 µM
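Note: spheroids exposed to agents for seven days before readout.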

## NS(=O)(=O)OCC1CC(n2ccc3c(NC4CCc5ccccc54)ncnc32)CC1O (stereo not given) + NC1CC1c1ccc(-c2cccc(O)c2)cc1
[1]
  IC50: > 3000 nM
[2]
  IC50: > 3000 nM
[3]
  IC50: > 3000 nM
[4]
  IC50: > 3000 nM
[5]
  IC50: > 3000 nM
[6]
  viability, T/C: 94.2%
[7]
  viability, T/C: 97.9%
[8]
  viability, T/C: 107%
[9]
  viability, T/C: 74.1%
Second compound 0.1 µM, first compound 0.949 µM
  viability, T/C: 64.9%
Second compound 0.1 µM, first compound 3 µM
  viability, T/C: 60%
[10]
  viability, T/C: 91.8%
[11]
  viability, T/C: 95.7%
[12]
  viability, T/C: 118%
[13]
  viability, T/C: 81.4%
Second compound 0.316 µM, first compound 0.949 µM
  viability, T/C: 66%
Second compound 0.316 µM, first compound 3 µM
  viability, T/C: 61.6%
[14]
  viability, T/C: 94.4%
[15]
  viability, T/C: 96.4%
[16]
  viability, T/C: 113%
[17]
  viability, T/C: 72.7%
Second compound 1 µM, first compound 0.949 µM
  viability, T/C: 64.5%
Second compound 1 µM, first compound 3 µM
  viability, T/C: 60.7%
[18]
  viability, T/C: 83.2%
[19]
  viability, T/C: 102%
[20]
  viability, T/C: 132%
[21]
  viability, T/C: 64.9%
Second compound 3.16 µM, first compound 0.949 µM
  viability, T/C: 64.7%
Second compound 3.16 µM, first compound 3 µM
  viability, T/C: 61.1%
[22]
  viability, T/C: 94.1%
[23]
  viability, T/C: 105%
[24]
  viability, T/C: 132%
[25]
  viability, T/C: 68.8%
Second compound 10 µM, first compound 0.949 µM
  viability, T/C: 61.8%
Second compound 10 µM, first compound 3 µM
  viability, T/C: 48.2%

## CC1COCCN1c1cc(-c2ccnn2C)c2ccnc(-c3ccn[nH]3)c2n1 (stereo not given) + NC1CCC(NC2CC2c2ccccc2)CC1
[1]
  IC50: 23 nM
[2]
  IC50: 21.8 nM
[3]
  IC50: 35.3 nM
[4]
  IC50: 24.4 nM
[5]
  IC50: 31.8 nM
[26]
  viability, T/C: 85.9%
[27]
  viability, T/C: 67.7%
[28]
  viability, T/C: 42.8%
[29]
  viability, T/C: 33%
[30]
  viability, T/C: 32.3%
[31]
  viability, T/C: 27.1%
[32]
  viability, T/C: 79.6%
[33]
  viability, T/C: 59%
[34]
  viability, T/C: 48.1%
[35]
  viability, T/C: 32.3%
[36]
  viability, T/C: 28.1%
[37]
  viability, T/C: 27.7%
[38]
  viability, T/C: 78.1%
[39]
  viability, T/C: 67.7%
[40]
  viability, T/C: 52%
[41]
  viability, T/C: 35.9%
[42]
  viability, T/C: 33.9%
[43]
  viability, T/C: 27.9%
[44]
  viability, T/C: 92.2%
[45]
  viability, T/C: 64.1%
[46]
  viability, T/C: 44.8%
[47]
  viability, T/C: 37.3%
[48]
  viability, T/C: 31.1%
[49]
  viability, T/C: 27.8%
[50]
  viability, T/C: 84.4%
[51]
  viability, T/C: 68.1%
[52]
  viability, T/C: 50.9%
[53]
  viability, T/C: 36.5%
[54]
  viability, T/C: 33.5%
[55]
  viability, T/C: 30.1%

## Nc1ccn(C2OC(CO)C(O)C2(F)F)c(=O)n1 (stereo not given)
Compound 0.000949 µM
  viability, T/C: 64.7% and 96.4%
Compound 0.003 µM
  viability, T/C: 56.8% and 94.6%
Compound 0.00949 µM
  viability, T/C: 49% and 73.2%
Compound 0.03 µM
  viability, T/C: 38.4% and 57.3%
Compound 0.0949 µM
  viability, T/C: 37.5% and 50.2%
Compound 0.3 µM
  viability, T/C: 34.7% and 50.1%

## Nc1ncn(C2CC(O)C(CO)O2)c(=O)n1 (stereo not given)
Compound 0.00316 µM
  viability, T/C: 89% and 109%
Compound 0.01 µM
  viability, T/C: 105% and 103%
Compound 0.0316 µM
  viability, T/C: 83.9% and 95.3%
Compound 0.1 µM
  viability, T/C: 78.7% and 96.2%
Compound 0.316 µM
  viability, T/C: 80.5% and 91.1%
Compound 1 µM
  viability, T/C: 79.3% and 85.2%
Curve of compound
  IC50: > 1000 nM

## COc1cc(Nc2ncc3c(n2)-c2ccc(Cl)cc2C(c2c(F)cccc2OC)=NC3)ccc1C(=O)O + NC1CC1c1ccc(-c2cccc(O)c2)cc1
[1]
  IC50: > 1000 nM
[2]
  IC50: > 1000 nM
[3]
  IC50: > 1000 nM
[4]
  IC50: 819 nM
[5]
  IC50: > 1000 nM
[26]
  viability, T/C: 66.8%
[27]
  viability, T/C: 75.8%
[28]
  viability, T/C: 73.6%
[29]
  viability, T/C: 62.1%
[30]
  viability, T/C: 66.8%
[31]
  viability, T/C: 64.8%
[32]
  viability, T/C: 63.6%
[33]
  viability, T/C: 70.6%
[34]
  viability, T/C: 65.8%
[35]
  viability, T/C: 57.2%
[36]
  viability, T/C: 57.3%
[37]
  viability, T/C: 53.9%
[38]
  viability, T/C: 63.5%
[39]
  viability, T/C: 70.8%
[40]
  viability, T/C: 61.8%
[41]
  viability, T/C: 59.8%
[42]
  viability, T/C: 57.3%
[43]
  viability, T/C: 53.7%
[44]
  viability, T/C: 62.1%
[45]
  viability, T/C: 58.9%
[46]
  viability, T/C: 58%
[47]
  viability, T/C: 54.7%
[48]
  viability, T/C: 51.7%
[49]
  viability, T/C: 49.6%
[50]
  viability, T/C: 60.2%
[51]
  viability, T/C: 66.3%
[52]
  viability, T/C: 65.1%
[53]
  viability, T/C: 55.5%
[54]
  viability, T/C: 56.8%
[55]
  viability, T/C: 53.5%

## CCN(c1cc(-c2ccc(CN3CCOCC3)cc2)cc(C(=O)NCc2c(C)cc(C)[nH]c2=O)c1C)C1CCOCC1
Compound 0.00949 µM
  viability, T/C: 91.4% and 104%
Compound 0.03 µM
  viability, T/C: 96.6% and 104%
Compound 0.0949 µM
  viability, T/C: 103%
Compound 0.3 µM
  viability, T/C: 97.3% and 101%
Compound 0.949 µM
  viability, T/C: 91.9% and 89.5%
Compound 3 µM
  viability, T/C: 92.6% and 92%
Curve of compound
  IC50: > 3000 nM

## Nc1ncn(C2CC(O)C(CO)S2)c(=O)n1 (stereo not given) + NC1CC1c1ccc(-c2cccc(O)c2)cc1
[1]
  IC50: > 300 nM
[2]
  IC50: > 300 nM
[3]
  IC50: > 300 nM
[4]
  IC50: > 300 nM
[5]
  IC50: > 300 nM
Second compound 0.1 µM, first compound 0.000949 µM
  viability, T/C: 100%
Second compound 0.1 µM, first compound 0.003 µM
  viability, T/C: 90.5%
[6]
  viability, T/C: 104%
[7]
  viability, T/C: 91%
[8]
  viability, T/C: 78.1%
[9]
  viability, T/C: 64.8%
Second compound 0.316 µM, first compound 0.000949 µM
  viability, T/C: 94.9%
Second compound 0.316 µM, first compound 0.003 µM
  viability, T/C: 100%
[10]
  viability, T/C: 77.4%
[11]
  viability, T/C: 84.8%
[12]
  viability, T/C: 87%
[13]
  viability, T/C: 67.6%
Second compound 1 µM, first compound 0.000949 µM
  viability, T/C: 81.8%
Second compound 1 µM, first compound 0.003 µM
  viability, T/C: 101%
[14]
  viability, T/C: 102%
[15]
  viability, T/C: 88.8%
[16]
  viability, T/C: 80.4%
[17]
  viability, T/C: 67.5%
Second compound 3.16 µM, first compound 0.000949 µM
  viability, T/C: 102%
Second compound 3.16 µM, first compound 0.003 µM
  viability, T/C: 94.2%
[18]
  viability, T/C: 98.2%
[19]
  viability, T/C: 85.1%
[20]
  viability, T/C: 93.8%
[21]
  viability, T/C: 77%
Second compound 10 µM, first compound 0.000949 µM
  viability, T/C: 94.3%
Second compound 10 µM, first compound 0.003 µM
  viability, T/C: 92.9%
[22]
  viability, T/C: 102%
[23]
  viability, T/C: 79.6%
[24]
  viability, T/C: 90.3%
[25]
  viability, T/C: 74.8%
